Data from ChEMBL document CHEMBL1136373, “Conformationally restricted 3,4-diarylfuranones (2,3a,4,5-tetrahydronaphthofuranones) as selective cyclooxygenase-2 inhibitors” (Bioorg Med Chem Lett, 2003).

Legend:
[1] = target: T1, Prostaglandin G/H synthase 2 (Homo sapiens, UniProt P35354); assay: In vitro inhibitory activity against recombinant human Prostaglandin G/H synthase 2
T1 sequence (P35354 whole entry): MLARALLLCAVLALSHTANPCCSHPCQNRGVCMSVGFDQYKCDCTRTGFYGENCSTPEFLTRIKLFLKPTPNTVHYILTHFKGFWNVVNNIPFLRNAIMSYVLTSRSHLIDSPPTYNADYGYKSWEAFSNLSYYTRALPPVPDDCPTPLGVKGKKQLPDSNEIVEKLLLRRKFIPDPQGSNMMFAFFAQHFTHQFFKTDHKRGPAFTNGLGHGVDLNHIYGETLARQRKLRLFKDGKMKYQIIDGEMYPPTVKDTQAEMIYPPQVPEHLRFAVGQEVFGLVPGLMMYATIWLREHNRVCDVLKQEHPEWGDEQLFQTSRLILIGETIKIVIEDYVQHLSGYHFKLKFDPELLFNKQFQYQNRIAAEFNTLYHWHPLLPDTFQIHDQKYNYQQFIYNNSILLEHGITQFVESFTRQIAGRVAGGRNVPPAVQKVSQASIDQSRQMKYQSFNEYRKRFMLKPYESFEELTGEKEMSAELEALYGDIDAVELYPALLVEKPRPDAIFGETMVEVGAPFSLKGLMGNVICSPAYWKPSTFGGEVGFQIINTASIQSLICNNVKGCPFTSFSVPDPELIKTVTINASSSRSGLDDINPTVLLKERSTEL

[2] = target: T2, Prostaglandin G/H synthase 1 (Homo sapiens, UniProt P23219); assay: In vitro inhibitory activity against recombinant human Prostaglandin G/H synthase 1 at concentration of 100 uM
[3] = target: T2, Prostaglandin G/H synthase 1; assay: In vitro inhibitory activity against recombinant human Prostaglandin G/H synthase 1
[4] = target: T2, Prostaglandin G/H synthase 1; assay: Ratio of in vitro inhibitory activity against recombinant human COX-1 to that of recombinant human COX-2

T2 sequence (P23219 whole entry): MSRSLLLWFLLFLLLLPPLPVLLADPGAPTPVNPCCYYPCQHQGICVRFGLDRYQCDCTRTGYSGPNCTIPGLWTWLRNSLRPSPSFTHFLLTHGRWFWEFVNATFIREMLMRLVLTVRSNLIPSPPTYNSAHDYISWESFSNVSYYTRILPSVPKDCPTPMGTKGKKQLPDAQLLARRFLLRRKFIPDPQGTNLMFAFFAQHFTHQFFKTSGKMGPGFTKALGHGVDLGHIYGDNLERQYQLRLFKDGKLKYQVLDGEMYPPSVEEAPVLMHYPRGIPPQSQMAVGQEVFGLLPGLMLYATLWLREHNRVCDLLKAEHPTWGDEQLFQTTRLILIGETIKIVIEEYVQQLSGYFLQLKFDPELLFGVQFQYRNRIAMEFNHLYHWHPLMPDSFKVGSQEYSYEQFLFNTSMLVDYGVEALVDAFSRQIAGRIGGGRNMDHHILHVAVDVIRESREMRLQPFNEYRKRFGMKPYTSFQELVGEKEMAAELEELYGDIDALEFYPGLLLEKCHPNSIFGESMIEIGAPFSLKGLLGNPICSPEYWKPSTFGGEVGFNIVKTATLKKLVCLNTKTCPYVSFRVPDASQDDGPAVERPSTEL

For `CS(=O)(=O)c1ccc(C2=C3c4ccccc4CCC3OC2=O)cc1` (stereo unspecified), the IC50 [1] was 562 nM, the inhibition [2] was 100% and the IC50 [3] was > 45000 nM.
`CSc1ccc(C2=C3c4cc(C)ccc4CCC3(O)OC2=O)cc1` (stereo unspecified) was tested, and the IC50 [1] was 670 nM, the inhibition [2] was 97% and the IC50 [3] was 13200 nM.
With `CSc1ccc(C2=C3c4ccccc4CCC3OC2=O)cc1` (stereo unspecified) the IC50 [1] was 827 nM, the inhibition [2] was 100% and the IC50 [3] was 53 nM.
`C[S+]([O-])c1ccc(C2=C3c4ccccc4CCC3(O)OC2=O)cc1` (stereo unspecified) showed an inhibition [2] of 11%.
For `CSc1ccc(C2=C3c4cc(C)ccc4CCC3OC2=O)cc1` (stereo unspecified), the IC50 [1] was 971 nM, the inhibition [2] was 100% and the IC50 [3] was 61 nM.
`CSc1ccc(C2=C3c4ccccc4CCC3(O)OC2=O)cc1` (stereo unspecified) gave an IC50 [1] of 850 nM, an inhibition [2] of 80% and an IC50 [3] of 16700 nM.
`Cc1ccc2c(c1)C1=C(c3ccc(S(C)(=O)=O)cc3)C(=O)OC1CC2` (stereo unspecified) was tested, and the IC50 [1] was 665 nM, the inhibition [2] was 52% and the IC50 [3] was > 30000 nM. The Ratio [4] was > 45.1.
`CS(=O)(=O)c1ccc(C2=C3c4ccccc4CCC3(O)OC2=O)cc1` (stereo unspecified) showed an inhibition [2] of 57%.
